Results published in article PMC6475490 (Psychopharmacology, 2018).
“Also recorded” adds a separate entry of the source.

Assays:
DAT, SERT, and NET = assay type: biochemical, rat; details: from DAT, SERT EC50 and NET screening data
DAT = DAT (Rattus norvegicus, UniProt P23977); test: DAT-mediated [3H]DA release assay in rat brain synaptosomes; assay type: biochemical
SERT = SERT (Rattus norvegicus, UniProt P31652); test: SERT-mediated [3H]5-HT release assay in rat brain synaptosomes; assay type: biochemical; details: relative to methcathinone 1
SERT, sequence (P31652 whole entry): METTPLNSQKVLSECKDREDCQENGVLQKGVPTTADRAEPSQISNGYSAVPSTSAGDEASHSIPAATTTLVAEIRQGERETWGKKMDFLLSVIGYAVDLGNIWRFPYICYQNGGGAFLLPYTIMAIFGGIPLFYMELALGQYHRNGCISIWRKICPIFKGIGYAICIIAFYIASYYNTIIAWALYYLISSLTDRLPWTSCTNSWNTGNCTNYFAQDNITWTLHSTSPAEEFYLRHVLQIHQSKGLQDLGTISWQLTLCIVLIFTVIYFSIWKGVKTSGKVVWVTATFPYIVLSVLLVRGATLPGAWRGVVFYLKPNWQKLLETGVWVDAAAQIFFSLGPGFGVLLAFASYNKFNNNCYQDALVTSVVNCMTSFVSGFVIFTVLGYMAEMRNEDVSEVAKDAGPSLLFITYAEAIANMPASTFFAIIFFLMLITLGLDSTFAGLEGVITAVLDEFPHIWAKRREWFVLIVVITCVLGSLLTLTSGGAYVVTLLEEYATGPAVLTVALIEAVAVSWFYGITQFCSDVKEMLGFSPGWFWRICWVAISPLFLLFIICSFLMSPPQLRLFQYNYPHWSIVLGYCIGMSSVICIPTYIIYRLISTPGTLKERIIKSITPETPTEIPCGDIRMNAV

rats [1] = details: ref Gatch et al. 2015; cited from earlier work
NET = NET (Rattus norvegicus, UniProt Q63380); test: NET-mediated [3H]MPP+ release screen in rat brain synaptosomes; assay type: biochemical; details: based on % release at 10 µM screening data
NET, sequence (Q63380 1-617): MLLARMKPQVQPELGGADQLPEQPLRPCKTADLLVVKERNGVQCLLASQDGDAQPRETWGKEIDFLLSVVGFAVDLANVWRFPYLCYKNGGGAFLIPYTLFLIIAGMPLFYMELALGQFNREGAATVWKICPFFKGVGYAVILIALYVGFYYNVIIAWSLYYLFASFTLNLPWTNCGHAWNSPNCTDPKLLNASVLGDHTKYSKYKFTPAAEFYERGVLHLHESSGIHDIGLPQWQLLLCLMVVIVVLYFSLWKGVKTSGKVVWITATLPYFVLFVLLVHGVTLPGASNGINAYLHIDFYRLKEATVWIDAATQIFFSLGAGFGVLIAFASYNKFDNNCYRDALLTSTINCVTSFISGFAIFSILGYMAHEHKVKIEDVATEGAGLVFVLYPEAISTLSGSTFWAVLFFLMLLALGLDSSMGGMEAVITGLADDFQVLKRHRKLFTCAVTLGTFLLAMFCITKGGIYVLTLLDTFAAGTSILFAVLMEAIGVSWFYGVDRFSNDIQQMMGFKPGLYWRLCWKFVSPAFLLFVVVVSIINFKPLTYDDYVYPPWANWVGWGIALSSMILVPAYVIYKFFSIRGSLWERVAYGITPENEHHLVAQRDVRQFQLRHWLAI

baboons = details: ref Kaminski and Griffiths 1994; cited from earlier work
rats [2] = details: ref Glennon et al. 1987; cited from earlier work
transporters = details: CF3 analogs; ref Cozzi et al. 2013; cited from earlier work

DAT, sequence (P23977 whole entry): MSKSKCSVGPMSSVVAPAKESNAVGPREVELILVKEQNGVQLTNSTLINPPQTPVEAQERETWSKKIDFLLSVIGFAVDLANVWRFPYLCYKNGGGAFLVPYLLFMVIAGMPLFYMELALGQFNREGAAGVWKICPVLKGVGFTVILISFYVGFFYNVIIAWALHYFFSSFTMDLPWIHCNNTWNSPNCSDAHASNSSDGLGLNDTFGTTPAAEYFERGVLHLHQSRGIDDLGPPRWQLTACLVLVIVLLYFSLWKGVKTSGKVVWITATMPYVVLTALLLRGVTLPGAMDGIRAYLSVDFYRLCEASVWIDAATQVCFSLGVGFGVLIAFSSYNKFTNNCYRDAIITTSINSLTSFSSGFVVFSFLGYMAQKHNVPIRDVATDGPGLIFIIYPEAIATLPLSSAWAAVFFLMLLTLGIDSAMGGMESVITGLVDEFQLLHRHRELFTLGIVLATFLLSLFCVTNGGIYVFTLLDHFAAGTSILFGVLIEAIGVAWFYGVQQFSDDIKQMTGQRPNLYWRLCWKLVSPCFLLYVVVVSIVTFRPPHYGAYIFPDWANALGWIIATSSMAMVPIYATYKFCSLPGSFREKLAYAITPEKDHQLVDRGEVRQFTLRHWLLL

SMILES	transporter selectivity profile in words (DAT, SERT, and NET)	fold less potent at DA release (DAT) compared to 1 (DAT; relative to methcathinone 1) [fold]	fold more potent at 5-HT release (SERT) compared to 1 (SERT) [fold]	also measured
Cl.NCC(=O)c1ccccc1 [Compound 6, phenacylamine, reference compound]	DAT selective	4.2		
CNC(C)C(=O)c1ccc(C)c(Cl)c1 (centres unmarked) [Compound 31]		2.5	102	
CNC(C)C(=O)c1cccc(F)c1 (centres unmarked) [Compound 13, 3-fluoromethcathinone]	highly potent, DAT selective compound		2.9	locomotor stimulation (rats [1]): induce locomotor stimulation
CNC(C)C(=O)c1ccc(C)cc1 (centres unmarked) [Compound 24, mephedrone, reference compound]			36	
CNC(C)C(=O)c1cccc(Br)c1 (centres unmarked) [Compound 11]			31	fold more potent at DA release (DAT) compared to 1 (DAT; relative to methcathinone 1): ~2 fold
CNC(C)C(=O)c1ccc(Br)cc1 (centres unmarked) [Compound 19]			100	
CNC(C)C(=O)c1ccc(F)cc1 (centres unmarked) [Compound 21]		2.4	2.9	
CNC(C)C(=O)c1cccc(C)c1 (centres unmarked) [Compound 16]			14.6	
CNC(C)C(=O)c1cccc(C(F)(F)F)c1 (centres unmarked) [Compound 14]	SERT/NET selective releasers; also recorded: selective 5-HT releasers	26	14	
CNC(C)C(=O)c1ccccc1C (centres unmarked) [Compound 10]	DAT selective	2	12	
CNC(C)C(=O)c1ccccc1F (centres unmarked) [Compound 7]	DAT selective			
CNC(C)C(=O)c1ccccc1OC(F)(F)F (centres unmarked) [Compound 9]				NET / NE release activity in words (NET): weak
CNC(C)C(=O)c1c[nH]c2ccccc12 (centres unmarked) [Compound 28, 3-indoylmethcathinone]		~2	103	NET / NE release activity in words (NET): much weaker than its DAT release potency
CNC(C)C(=O)c1cccc2ccccc12 (centres unmarked) [Compound 26, 1-naphthylmethcathinone]			198	
CNC(C)C(=O)c1ccccc1 (centres unmarked) [Compound 1, methcathinone]	DAT selective			self-administration (baboons): dose-dependently maintain self-administration; substitution for amphetamine in drug discrimination (rats [2]): substitute for amphetamine
CNC(C)C(=O)c1ccc(C(F)(F)F)cc1 (centres unmarked) [Compound 22]	most serotonergic; also recorded: low DAT selectivity		15	relative selectivity (DAT selectivity) (transporters): < 0.04; EC50 (DAT; read-out: DA release EC50, bound stated): > 4 µM
CNC(C)C(=O)c1ccccc1C(F)(F)F (centres unmarked) [Compound 8]	selective NET releaser; also recorded: selective NE releasers			NET / NE release activity in words (NET): appears active as a NE releaser
